Source: patent US4822787A, “3-pyrrolidinylthio-1-azabicyclo(3.2.0)-hept-2-ene-2-carboxylic acid compounds and antimicrobial activity thereof” (Fujisawa Pharmaceutical Co., Ltd., priority 1986, dated 1989)
Converted amounts (≈) assume the structure as drawn.

Legend:
Assay type in all cases: cell-based
[1] = test system: S. aureus 2496; assay: in vitro Antimicrobial Activity, two-fold agar-plate dilution method (MIC), S. aureus 2496; settings: Staphylococcus aureus, Mueller Hinton agar, 37° C., 20 hours, read-out: minimal inhibitory concentration (MIC)
Experimental: (§1) in vitro Antimicrobial Activity was determined by the two-fold agar-plate dilution method as described below. One loopful of 100-fold dilution of an overnight culture of a test strain in Mueller Hinton broth (Difco) (approximately 10^6 viable cells per ml) was spot-inoculated on Mueller Hinto agar^(*) (Difco) containing graded concentrations of the test compound, and the minimal inhibitory concentration (MIC) was expressed in terms of μg/ml after incubation at 37° C. for 20 hours.

[2] = test system: H. influenzae 58; assay: in vitro Antimicrobial Activity, two-fold agar-plate dilution method (MIC), H. influenzae 58; settings: Haemophilus influenzae, added 5% horse blood-chocolate agar, 37° C., 20 hours, read-out: minimal inhibitory concentration (MIC)
Experimental: as §1, with “hours. [(*)added 5% horse blood-chocolate agar for the test of H. influenzae]” for “hours.”

[3] = test system: E. cloacae 3013; assay: in vitro Antimicrobial Activity, two-fold agar-plate dilution method (MIC), E. cloacae 3013; settings: Enterobacter cloacae, Mueller Hinton agar, 37° C., 20 hours, read-out: minimal inhibitory concentration (MIC)
Experimental: as §1

[4] = test system: P. aeruginosa 3036; assay: in vitro Antimicrobial Activity, two-fold agar-plate dilution method (MIC), P. aeruginosa 3036; settings: Pseudomonas aeruginosa, Mueller Hinton agar, 37° C., 20 hours, read-out: minimal inhibitory concentration (MIC)
Experimental: as §1

Row | SMILES | MIC [1] [µg/mL] | MIC [2] [µg/mL] | MIC [3] [µg/mL] | MIC [4] [µg/mL]
1 | C[C@@H](O)[C@H]1C(=O)N2C(C(=O)O)=C(S[C@@H]3CN[C@H](CNC(N)=O)C3)[C@H](C)[C@H]12 [Reference Compound, (4R,5S,6S)-6-[(1R)-1-hydroxyethyl]-4-methyl-7-oxo-3-[(2S,4S)-2-ureidomethylpyrrolidin-4-yl]thio-1-azabicyclo[3.2.0]hept-2-ene-2-carboxylic acid] | 1.56 (≈ 4.06 µM) | 0.78 (≈ 2.03 µM) | 0.1 (≈ 0.26 µM) | 1.56 (≈ 4.06 µM)
2 | C[C@@H](O)[C@H]1C(=O)N2C(C(=O)O)=C(S[C@@H]3CN[C@H](COCCNC(N)=O)C3)[C@H](C)[C@H]12 [Compound of this invention, (4R,5S,6S)-6-[(1R)-1-hydroxyethyl]-4-methyl-7-oxo-3-[(2S,4S)-2-{(2-ureidoethyl)oxymethyl}pyrrolidin-4-yl]thio-1-azabicyclo[3.2.0]hept-2-ene-2-carboxylic acid] | 0.05 (≈ 0.117 µM) | 0.1 (≈ 0.233 µM) | ≤ 0.025 | 0.39 (≈ 0.91 µM)
